Our source for the mutagenic call values is PubChem BioAssay AID1259407 (Chemical Carcinogenesis Research Information System (CCRIS), 2018).

This series relates to CCRIS mutagenicity, Ames/micronucleus/aberration tests. Nature of the series: CCRIS mutagenicity studies. Particulars: Test System: AMES SALMONELLA TYPHIMURIUM

Activity calls are given as the source filed them. The rule behind the calls is not given here.

Consider `CCCCCCC=O`, for which the mutagenic call runs as follows: (Strain/Indicator: TA97, Metabolic Activation: HAMSTER, LIVER, S-9, AROCLOR 1254 (10%), Method: PREINCUBATION) “inactive; negative”; (Strain/Indicator: TA97, Metabolic Activation: HAMSTER, LIVER, S-9, AROCLOR 1254 (30%), Method: PREINCUBATION) “inactive; negative”; (Strain/Indicator: TA97, Metabolic Activation: NONE, Method: PREINCUBATION) “inactive; negative”; (Strain/Indicator: TA97, Metabolic Activation: RAT, LIVER, S-9, AROCLOR 1254 (10%), Method: PREINCUBATION) “inactive; negative”; (Strain/Indicator: TA97, Metabolic Activation: RAT, LIVER, S-9, AROCLOR 1254 (30%), Method: PREINCUBATION) “inactive; negative”; (Strain/Indicator: TA98, Metabolic Activation: HAMSTER, LIVER, S-9, AROCLOR 1254 (10%), Method: PREINCUBATION) “inactive; negative”. Moreover, the mutagenic call was “inactive; negative” (Strain/Indicator: TA98, Metabolic Activation: HAMSTER, LIVER, S-9, AROCLOR 1254 (30%), Method: PREINCUBATION); “inactive; negative” (Strain/Indicator: TA98, Metabolic Activation: NONE, Method: PREINCUBATION); “inactive; negative” (Strain/Indicator: TA98, Metabolic Activation: RAT, LIVER, S-9, AROCLOR 1254 (10%), Method: PREINCUBATION); “inactive; negative” (Strain/Indicator: TA98, Metabolic Activation: RAT, LIVER, S-9, AROCLOR 1254 (30%), Method: PREINCUBATION); “inactive; negative” (Strain/Indicator: TA100, Metabolic Activation: HAMSTER, LIVER, S-9, AROCLOR 1254 (10%), Method: PREINCUBATION); “inactive; negative” (Strain/Indicator: TA100, Metabolic Activation: HAMSTER, LIVER, S-9, AROCLOR 1254 (30%), Method: PREINCUBATION). Also, the mutagenic call is “inactive; negative” (Strain/Indicator: TA100, Metabolic Activation: NONE, Method: PREINCUBATION); “inactive; negative” (Strain/Indicator: TA100, Metabolic Activation: RAT, LIVER, S-9, AROCLOR 1254 (10%), Method: PREINCUBATION); “inactive; negative” (Strain/Indicator: TA100, Metabolic Activation: RAT, LIVER, S-9, AROCLOR 1254 (30%), Method: PREINCUBATION); “inactive; negative” (Strain/Indicator: TA1535, Metabolic Activation: HAMSTER, LIVER, S-9, AROCLOR 1254 (10%), Method: PREINCUBATION); “inactive; negative” (Strain/Indicator: TA1535, Metabolic Activation: HAMSTER, LIVER, S-9, AROCLOR 1254 (30%), Method: PREINCUBATION); “inactive; negative” (Strain/Indicator: TA1535, Metabolic Activation: NONE, Method: PREINCUBATION). Besides, the mutagenic call is “inactive; negative” (Strain/Indicator: TA1535, Metabolic Activation: RAT, LIVER, S-9, AROCLOR 1254 (10%), Method: PREINCUBATION); “inactive; negative” (Strain/Indicator: TA1535, Metabolic Activation: RAT, LIVER, S-9, AROCLOR 1254 (30%), Method: PREINCUBATION); “inactive; negative” (Strain/Indicator: TA1537, Metabolic Activation: HAMSTER, LIVER, S-9, AROCLOR 1254 (30%), Method: PREINCUBATION); “inactive; negative” (Strain/Indicator: TA1537, Metabolic Activation: NONE, Method: PREINCUBATION); “inactive; negative” (Strain/Indicator: TA1537, Metabolic Activation: RAT, LIVER, S-9, AROCLOR 1254 (30%), Method: PREINCUBATION).

As for `CCc1c2ccccc2cc2c1ccc1ccccc12`, the mutagenic call runs as follows: (Strain/Indicator: TA98, Method: STANDARD PLATE) “active; positive”; (Strain/Indicator: TA100, Metabolic Activation: RAT, LIVER, S-9, PHENOBARBITAL, Method: STANDARD PLATE) “inactive; negative”; (Strain/Indicator: TA100, Method: STANDARD PLATE) “active; positive”.

Turning to `CC(=O)[CH-]C(=O)c1ccccc1.CC(=O)[CH-]C(=O)c1ccccc1.CC[O-].CC[O-].[Ti+4]`, the mutagenic call runs as follows: (Strain/Indicator: TA98, Metabolic Activation: NONE, Method: STANDARD PLATE) “inactive; negative”; (Strain/Indicator: TA98, Metabolic Activation: RAT, LIVER, S-9, AROCLOR 1254, Method: STANDARD PLATE) “inactive; negative”; (Strain/Indicator: TA100, Metabolic Activation: NONE, Method: STANDARD PLATE) “inactive; negative”; (Strain/Indicator: TA100, Metabolic Activation: RAT, LIVER, S-9, AROCLOR 1254, Method: PREINCUBATION) “inactive; negative”; (Strain/Indicator: TA100, Metabolic Activation: RAT, LIVER, S-9, AROCLOR 1254, Method: STANDARD PLATE) “inactive; negative”; (Strain/Indicator: TA1535, Metabolic Activation: NONE, Method: STANDARD PLATE) “inactive; negative”. Besides, the mutagenic call was “inactive; negative” (Strain/Indicator: TA1535, Metabolic Activation: RAT, LIVER, S-9, AROCLOR 1254, Method: PREINCUBATION); “inactive; negative” (Strain/Indicator: TA1535, Metabolic Activation: RAT, LIVER, S-9, AROCLOR 1254, Method: STANDARD PLATE); “inactive; negative” (Strain/Indicator: TA1537, Metabolic Activation: NONE, Method: STANDARD PLATE); “inactive; negative” (Strain/Indicator: TA1537, Metabolic Activation: RAT, LIVER, S-9, AROCLOR 1254, Method: STANDARD PLATE); “inactive; negative” (Strain/Indicator: TA1538, Metabolic Activation: NONE, Method: STANDARD PLATE); “inactive; negative” (Strain/Indicator: TA1538, Metabolic Activation: RAT, LIVER, S-9, AROCLOR 1254, Method: STANDARD PLATE).

Take `Fc1cnc2c(c1)cc(F)c1ccccc12`: for the setting “Strain/Indicator: TA100, Metabolic Activation: RAT, LIVER, S-9, PHENOBARBITAL AND 5,6-BENZOFLAVONE, Method: PREINCUBATION”, the mutagenic call is “inactive; negative”.
